From ChEMBL document CHEMBL3301361, “Experimental in vitro DMPK and physicochemical data on a set of publicly disclosed compounds” come the findings set out here.

Converted amounts (≈) assume the structure as drawn.

Data set [1] can be described thus: physchem. Conditions: pH 7.4 buffer.
The nature of data set [2]: in vitro. Particulars: human.
Data set [3] in a line: physchem. Particulars: octan-1-ol/water.
Data set [4] is described as follows: in vitro. Conditions: human, plasma.

A word on the solubility (thermodynamic): it is solubility found after equilibrating the solid with the medium. In general, microsomal CLint refers to the rate of metabolic loss divided by the concentration. Compound `CN(C)CC(O)COc1ccc(Nc2ncc(Cl)c(Nc3ccccc3)n2)cc1` (stereo not given) displayed a solubility (thermodynamic) in data set [1] of 38.9 µM (≈ 16.1 µg/mL). Further, the intrinsic metabolic clearance (microsomal CLint) in data set [2] (liver microsomes) worked out at 5 µL/min/mg.

Usually logD stands for the decadic logarithm of the distribution of all forms, ionised or not, between an organic phase and buffer at a given pH. `Cc1ccc(F)c(Nc2ccnc(Nc3ccc(S(N)(=O)=O)cc3)n2)c1` had a logD in data set [3] (pH 7.4, LogD7.4) of 3.1. Moreover, the thermodynamic solubility in data set [1] was 4.4 µM (≈ 1.64 µg/mL). The microsomal CLint in data set [2] (liver microsomes) is 18 µL/min/mg.

Turning to `CCN(C(=O)NCc1c(F)cccc1F)C1CCN(CCC(c2ccccc2)c2ccccc2)CC1`, the solubility (thermodynamic) in data set [1] came out at 24 µM (≈ 11.8 µg/mL). In data set [2] (liver microsomes), this compound displayed an intrinsic metabolic clearance (microsomal CLint) of 6 µL/min/mg.

Consider `O=c1[nH]c(-c2ccc([N+](=O)[O-])cc2)nc2ccccc12`, for which, in data set [3] (pH 7.4, LogD7.4), the logD is 2.5. The thermodynamic solubility in data set [1] worked out at 1.9 µM (≈ 0.508 µg/mL). The same compound had a microsomal CLint in data set [2] (microsomes) of 53.7 µL/min/mg.

What is called fraction unbound is the share of the substance not bound to proteins or other matrix. Low values mean extensive binding, high ones weak binding. Consider `CCCCCOc1ccc(C(=O)NC(C(=O)O)C(C)C)cc1` (stereo not given), for which the free fraction (fraction unbound) at 5 h in data set [4] is 0.0171. The intrinsic clearance (microsomal CLint) in data set [2] (liver microsomes) stood at 5.5 µL/min/mg.

Turning to `Cc1noc(C)c1-c1ccc(CNS(=O)(=O)c2c(C)noc2C)cc1`, in data set [4] (PPB), the fraction unbound at 5 h was 0.0752. Also, in data set [2] (microsomes), the intrinsic clearance (microsomal CLint) worked out at 60.3 µL/min/mg.

For `CCN(C(=O)NCc1ccc(S(C)(=O)=O)cc1)C1CCN(CCC(c2ccccc2)c2ccccc2)CC1`, the logD in data set [3] (pH 7.4, LogD7.4) was 2.86. Further, in data set [1], the thermodynamic solubility worked out at 282 µM (≈ 150 µg/mL). In addition, the intrinsic clearance (microsomal CLint) in data set [2] (liver microsomes) was < 3 µL/min/mg.

In turn, `COc1ccc(CC(=O)N(C)C2CCN(CCC(c3ccccc3)c3ccccc3)CC2)cc1OC` showed a log distribution coefficient (logD) in data set [3] (pH 7.4, LogD7.4) of 3.4. Moreover, the solubility (thermodynamic) in data set [1] was determined as 324 µM (≈ 157 µg/mL). Moreover, in data set [2] (liver microsomes), the intrinsic metabolic clearance (microsomal CLint) stood at 112 µL/min/mg.

Consider `NC(=O)Nc1cc(-c2ccccc2)sc1C(N)=O`, for which, in data set [3] (pH 7.4, LogD7.4), the log distribution coefficient (logD) is 2.43. In data set [1], this compound returned a solubility (thermodynamic) of 17 µM (≈ 4.44 µg/mL). The same compound returned a microsomal CLint in data set [2] (liver microsomes) of 27 µL/min/mg.

`CC(=O)Nc1ccc(CNc2[nH]nc3cccc(Oc4ccc(S(C)(=O)=O)cc4)c23)cc1` displayed a logD in data set [3] (pH 7.4, LogD7.4) of 2.63. In data set [1], this compound showed a solubility (thermodynamic) of 4.3 µM (≈ 1.94 µg/mL). The compound further gave a microsomal CLint in data set [2] (liver microsomes) of 75 µL/min/mg.

`COc1ccc(OC)c(CNc2[nH]nc3cccc(Oc4ccc(S(C)(=O)=O)cc4)c23)c1` came in with a logD in data set [3] (pH 7.4, LogD7.4) of 3.71. The thermodynamic solubility in data set [1] was 2.2 µM (≈ 0.998 µg/mL). This compound also had a microsomal CLint in data set [2] (liver microsomes) of 103 µL/min/mg.

With `CCN(C(=O)Cc1ccc(S(C)(=O)=O)cc1)C1CCN(CC[C@@H](c2cc(F)cc(F)c2)N2CCN(S(C)(=O)=O)CC2)CC1`, the pH-dependent lipophilicity (logD) in data set [3] (pH 7.4, LogD7.4) was determined as 1.25. In data set [1], this compound gave a solubility (thermodynamic) of 1260 µM (≈ 807 µg/mL). The intrinsic metabolic clearance (microsomal CLint) in data set [2] (microsomes) stood at 7.5 µL/min/mg.

For `CCN(C(=O)Cc1ccc(S(C)(=O)=O)cc1)C1CCN(CCC(c2ccccc2)c2ccc(C)cc2)CC1` (stereo not given), the solubility (thermodynamic) in data set [1] was determined as 75.9 µM (≈ 40.4 µg/mL). In addition, the intrinsic metabolic clearance (microsomal CLint) in data set [2] (liver microsomes) stood at 66 µL/min/mg.

In the case of `CCN(C(=O)Cc1ccc(S(C)(=O)=O)cc1)C1CCN(CCC(c2ccccc2)c2ccc(NS(C)(=O)=O)cc2)CC1` (stereo not given), the logD in data set [3] (pH 7.4, LogD7.4) came out at 1.84. In data set [1], the thermodynamic solubility came out at 174 µM (≈ 106 µg/mL). Moreover, the microsomal CLint in data set [2] (liver microsomes) was < 3 µL/min/mg.

Take `CCN(C(=O)Cc1ccc(S(C)(=O)=O)cc1)C1CCN(CCC(c2ccccc2)c2ccc(NC(C)=O)cc2)CC1` (stereo not given): the pH-dependent lipophilicity (logD) in data set [3] (pH 7.4, LogD7.4) is 2.09. In data set [1], this compound came in with a solubility (thermodynamic) of 692 µM (≈ 398 µg/mL). The intrinsic clearance (microsomal CLint) in data set [2] (liver microsomes) was < 3 µL/min/mg.

In data set [3] (pH 7.4, LogD7.4), `COc1ccccc1C(=O)Nc1ccc(C)c(-n2cnc3ccc(N4CCN(C)CC4)cc3c2=O)c1` yielded a pH-dependent lipophilicity (logD) of 2.93. In data set [1], this compound came in with a solubility (thermodynamic) of 75.9 µM (≈ 36.7 µg/mL). This compound also had a microsomal CLint in data set [2] (liver microsomes) of 7 µL/min/mg.

For `COc1cccc(C(=O)Nc2ccc(C)c(-n3cnc4ccc(N5CCN(C)CC5)cc4c3=O)c2)c1`, the logD in data set [3] (pH 7.4, LogD7.4) turned out to be 3.08. In addition, the thermodynamic solubility in data set [1] was found to be 219 µM (≈ 106 µg/mL). The same compound had a microsomal CLint in data set [2] (liver microsomes) of 16 µL/min/mg.

On to `Cc1ccc(NC(=O)c2ccccc2F)cc1-n1cnc2ccc(N3CCN(C)CC3)cc2c1=O`, for which, in data set [3] (pH 7.4, LogD7.4), the pH-dependent lipophilicity (logD) was found to be 2.75. Besides, the thermodynamic solubility in data set [1] turned out to be 933 µM (≈ 440 µg/mL). The microsomal CLint in data set [2] (microsomes) came out at 3 µL/min/mg.

In the case of `Cc1ccc(NC(=O)c2cncs2)cc1-n1cnc2ccc(N3CCN(C)CC3)cc2c1=O`, in data set [3] (pH 7.4, LogD7.4), the logD is 2.11. The thermodynamic solubility in data set [1] is 537 µM (≈ 247 µg/mL). Further, the intrinsic clearance (microsomal CLint) in data set [2] (microsomes) was < 3 µL/min/mg.

In turn, `Cc1ccc(C(=O)Nc2nccs2)cc1-n1cnc2ccc(N3CCN(C)CC3)cc2c1=O` yielded a logD in data set [3] (pH 7.4, LogD7.4) of 2.56. In data set [1], the solubility (thermodynamic) amounted to 91.2 µM (≈ 42 µg/mL). This compound showed a microsomal CLint in data set [2] (liver microsomes) of 7 µL/min/mg.

Compound `Nc1ccc2nc(SCC(=O)NC3CCN(Cc4ccc(Cl)c(Cl)c4)CC3)sc2c1` gave a free fraction (fraction unbound) at 5 h in data set [4] (PPB) of 0.262. In data set [2] (liver microsomes), this compound showed a microsomal CLint of 59 µL/min/mg.

As to `CC(C)Oc1cc(-n2cnc3ccc(N[C@@H](C)c4ccc(F)cn4)nc32)n[nH]1`, the free fraction (fraction unbound) at 5 h in data set [4] (PPB) is 0.0581. Further, the microsomal CLint in data set [2] (microsomes) was > 150 µL/min/mg.

`CS(=O)(=O)C1(c2cc(N3CCOCC3)nc(-c3cccc4[nH]ccc34)n2)CC1`: in data set [1], the thermodynamic solubility came out at 4.6 µM (≈ 1.83 µg/mL). The compound further showed a microsomal CLint in data set [2] (liver microsomes) of 11.2 µL/min/mg.

`Cc1ccc2[nH]ccc2c1-c1nc(N2CCOCC2)cc(C2(S(C)(=O)=O)CC2)n1`: the logD in data set [3] (pH 7.4, LogD7.4) was found to be 1.7. In data set [1], this compound displayed a thermodynamic solubility of 95.5 µM (≈ 39.4 µg/mL). This compound also showed a microsomal CLint in data set [2] (liver microsomes) of 5.75 µL/min/mg.

Regarding `C[C@H](CO)Nc1nc(SCc2ccco2)nc2nc(N)sc12`, the fraction unbound at 5 h in data set [4] (PPB) is 0.117. Besides, the intrinsic metabolic clearance (microsomal CLint) in data set [2] (liver microsomes) was 5 µL/min/mg.

Turning to `OC[C@H]1C[C@@H](n2nnc3c(N[C@@H]4C[C@H]4c4ccccc4)nc(SCCC(F)(F)F)nc32)[C@H](O)[C@@H]1O`, the logD in data set [3] (pH 7.4) worked out at 4.06. Moreover, in data set [1], the thermodynamic solubility was found to be 0.3 µM (≈ 0.153 µg/mL). Moreover, the intrinsic clearance (microsomal CLint) in data set [2] (microsomes) was < 3 µL/min/mg.

`CCCSc1nc(N[C@@H]2C[C@H]2c2ccccc2)c2nnn([C@@H]3C[C@H](OCCO)[C@@H](O)[C@H]3O)c2n1` displayed a logD in data set [3] (pH 7.4, LogD7.4) of 3.87. Also, in data set [1], the solubility (thermodynamic) is 1 µM (≈ 0.487 µg/mL). Besides, the microsomal CLint in data set [2] (liver microsomes) was < 3 µL/min/mg.

`CC(C)Cn1c(=O)n(C)c(=O)c2cn(Cc3cccc4ccccc34)cc21`: the logD in data set [3] (pH 7.4, LogD7.4) is 4.41. In data set [1], the solubility (thermodynamic) was 1 µM (≈ 0.361 µg/mL). Moreover, in data set [2] (microsomes), the intrinsic clearance (microsomal CLint) was determined as 14 µL/min/mg.

As to `CCN(C(=O)Cc1ccc(S(C)(=O)=O)cc1)C1CCN(CCC(c2ccccc2)c2ccc(NC(=O)C(C)(C)C)cc2)CC1` (stereo not given), the log distribution coefficient (logD) in data set [3] (pH 7.4, LogD7.4) turned out to be 2.98. In addition, the thermodynamic solubility in data set [1] was found to be 100 µM (≈ 61.8 µg/mL). For the same compound, the microsomal CLint in data set [2] (liver microsomes) was < 3 µL/min/mg.

Consider `COc1cc2ncnc(Nc3ccc(OCc4ccccn4)c(C)c3)c2cc1OC`, for which the pH-dependent lipophilicity (logD) in data set [3] (pH 7.4, LogD7.4) is 3.6. Further, the solubility (thermodynamic) in data set [1] was 0.9 µM (≈ 0.362 µg/mL). This compound had a microsomal CLint in data set [2] (liver microsomes) of 15 µL/min/mg.

For the compound `CCc1nc2c(N)nc3ccccc3c2n1CC(C)C`, in data set [4] (PPB), the unbound share (fraction unbound) at 5 h is 0.117. The intrinsic clearance (microsomal CLint) in data set [2] (liver microsomes) was < 3 µL/min/mg.

Take `Fc1cnc(Nc2ccccc2)nc1Nc1ccccc1`: the solubility (thermodynamic) in data set [1] worked out at 1.3 µM (≈ 0.364 µg/mL). Moreover, the microsomal CLint in data set [2] (liver microsomes) stood at 7 µL/min/mg.

In turn, `CN(CCOc1ccccc1-c1cc(C(N)=O)c(NC(N)=O)s1)Cc1ccccc1` returned a logD in data set [3] (pH 7.4, LogD7.4) of 3.46. Further, in data set [1], the thermodynamic solubility came out at 1.5 µM (≈ 0.637 µg/mL). Also, the microsomal CLint in data set [2] (liver microsomes) is > 150 µL/min/mg.

`Cc1cc(Nc2cncc(N[C@@H](C)c3ccc(F)cn3)n2)[nH]n1` gave a fraction unbound at 5 h in data set [4] (PPB) of 0.22. This compound yielded a microsomal CLint in data set [2] (liver microsomes) of 34.7 µL/min/mg.

`Cc1cc(Nc2cncc(N[C@@H](C)c3ncc(F)cn3)n2)n[nH]1`: the fraction unbound at 5 h in data set [4] (PPB) was 0.0854. Besides, the intrinsic metabolic clearance (microsomal CLint) in data set [2] (liver microsomes) was 15.8 µL/min/mg.

Compound `O=C(NO)c1ccc(NS(=O)(=O)c2ccccc2)cc1` displayed a logD in data set [3] (pH 7.4, LogD7.4) of 0.75. In data set [1], this compound came in with a thermodynamic solubility of 316 µM (≈ 92.4 µg/mL). In data set [2] (liver microsomes), the intrinsic metabolic clearance (microsomal CLint) stood at 12 µL/min/mg.

With `O=c1ncn2nc(Sc3ccc(F)cc3F)ccc2c1-c1c(Cl)cccc1Cl` [NEFLAMAPIMOD], in data set [3] (pH 7.4, LogD7.4), the logD is 2.74. The compound also displayed a solubility (thermodynamic) in data set [1] of 18.6 µM (≈ 8.11 µg/mL). Moreover, the intrinsic clearance (microsomal CLint) in data set [2] (liver microsomes) amounted to 3 µL/min/mg.

On to `c1ccc2c(c1)[nH]c1cnccc12` [NORHARMANE], for which, in data set [1], the solubility (thermodynamic) was 339 µM (≈ 57 µg/mL). The same compound returned a microsomal CLint in data set [2] (liver microsomes) of 89 µL/min/mg.
